# Data published in US10683311B2 (priority 2015, dated 2020).
# Legend:
# Pyricularia oryzae = test: microbe, parasite or virus in culture; type: cell-based; conditions: for Efficacy: inhibition of fungal growth, liquid culture; for inhibition at 20 ppm: Pyricularia oryzae, 120 h, read-out: efficacy (inhibition of fungal growth)
# Septoria tritici = test: Example D: in vivo preventive test on Septoria tritici (leaf spot on wheat)
# Protocol: Example D: In Vivo Preventive Test on Septoria tritici (Leaf Spot on Wheat)
# (§1) • Solvent: 5% by volume of dimethyl sulfoxide • 10% by volume of acetone • Emulsifier: 1 μL of Tween® 80 per mg of active ingredient
# The active compounds were made soluble and homogenized in a mixture of dimethyl sulfoxide/acetone//Tween® 80 and then diluted in water to the desired concentration.
# The young plants of wheat were treated by spraying the active compound prepared as described above. Control plants were treated only with an aqueous solution of acetone/dimethyl sulfoxide/Tween® 80.
# After 24 hours, the plants were contaminated by spraying the leaves with an aqueous suspension of Septoria tritici spores. The contaminated wheat plants were incubated for 72 hours at 18° C. and at 100% relative humidity and then for 21 days at 20° C. and at 90% relative humidity.
# The test was evaluated 24 days after the inoculation. 0% means an efficacy which corresponds to that of the control plants while an efficacy of 100% means that no disease is observed.
# Botrytis cinerea = test: Example B: in vivo preventive test on Botrytis cinerea (grey mould); conditions: evaluated 4 to 5 days after inoculation
# Protocol: Example B: In Vivo Preventive Test on Botrytis cinerea (Grey Mould)
# as §1
# The tested compounds were made soluble and homogenized in a mixture of dimethyl sulfoxide/acetone//Tween® 80 and then diluted in water to the desired concentration.
# The young plants of gherkin were treated by spraying the tested compounds prepared as described above. Control plants were treated only with an aqueous solution of acetone/dimethyl sulfoxide/Tween® 80.
# After 24 hours, the plants were contaminated by spraying the leaves with an aqueous suspension of Botrytis cinerea spores. The contaminated gherkin plants were incubated for 4 to 5 days at 17° C. and at 90% relative humidity.
# The test was evaluated 4 to 5 days after the inoculation. 0% means an efficacy which corresponds to that of the control plants while an efficacy of 100% means that no disease is observed.
# [1] = log P by HPLC on reversed-phase column (C18), EEC Directive 79/831 Annex V.A8; type: physicochemical; conditions: for chromatographic logP: reversed-phase HPLC column (C18)
# Procedure, shortened: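 Retention time on C18 reversed-phase HPLC at 40 °C, gradient 10% to 95% acetonitrile with either 0.1% aqueous formic acid (Method A) or 0.001 molar ammonium acetate (Method B). Calibrated with unbranched alkan-2-ones (C3–C16) of known log P by linear interpolation between successive alkanones.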
# [2] = dose 0.06 ppm, 5 days incubation
# [3] = dose 0.25 ppm, 5 days incubation
# [4] = 4 ppm of active ingredient, 5 days incubation
# [5] = 500 ppm of active ingredient, gherkin plants, preventive
# [6] = dose 500 ppm, preventive spray on gherkin plants
# [7] = Method A: 40° C., 0.1% aqueous formic acid and acetonitrile
smiles,measurement,setting,value
"Cc1nc2c(F)c(F)ccc2cc1Oc1ccccc1C[Si](C)(C)C [CMP1, 7,8-difluoro-2-methyl-3-{2-[(trimethylsilyl)methyl]phenoxy}quinoline, reference compound]",Efficacy,Pyricularia oryzae; [2],1%
same,Efficacy,Pyricularia oryzae; [3],56%
same,efficacy (inhibition of fungal growth),Pyricularia oryzae; dose of 0.25 ppm or 0.06 ppm,much lower efficacy
same,Efficacy,"Septoria tritici; 500 ppm of active ingredient, evaluated 24 days after inoculation",no protection
same,Efficacy,"Septoria tritici; Table D, dose 500 ppm",0%
"Cc1cc(Oc2cccc(F)c2[Si](C)(C)C)c2ccc(F)c(F)c2n1 [CMP3, 7,8-difluoro-4-[3-fluoro-2-(trimethylsilyl)phenoxy]-2-methylquinoline, reference compound]",Efficacy,"Pyricularia oryzae; 1 ppm, 5 days incubation",0%
same,efficacy (inhibition of fungal growth),Pyricularia oryzae; [4],much lower efficacy
same,Efficacy,"Pyricularia oryzae; 4 ppm, 5 days incubation",25%
same,Efficacy,"Pyricularia oryzae; 20 ppm, 5 days incubation",96%
same,Efficacy,Botrytis cinerea; [5],no efficacy
same,Efficacy,Botrytis cinerea; [6],0%
"C[Si](C)(C)c1c(F)cccc1Oc1ccnc2cccnc12 [CMP4, 4-[3-fluoro-2-(trimethylsilyl)-phenoxy]-1,5-naphthyridine, reference compound]",Efficacy,"Pyricularia oryzae; 1 ppm, 5 days incubation",0%
same,efficacy (inhibition of fungal growth),Pyricularia oryzae; [4],much lower efficacy
same,Efficacy,"Pyricularia oryzae; 4 ppm, 5 days incubation",11%
same,Efficacy,"Pyricularia oryzae; 20 ppm, 5 days incubation",44%
same,Efficacy,Botrytis cinerea; [5],no efficacy
same,Efficacy,Botrytis cinerea; [6],0%
Cc1nc2c(F)c(F)ccc2cc1Oc1ccccc1[Si](C)(C)C [I.024],Efficacy,Pyricularia oryzae; [2],89%
same,Efficacy,Pyricularia oryzae; [3],96%
same,efficacy (inhibition of fungal growth),Pyricularia oryzae; dose of 0.25 ppm or 0.06 ppm,at least 80%
same,logP,[1]; [7],6.01
same,Efficacy,"Septoria tritici; Table D, dose 500 ppm",81%
Cc1nc2c(F)c(F)ccc2cc1Oc1cccc(F)c1[Si](C)(C)C [I.027],Efficacy,"Pyricularia oryzae; 1 ppm, 5 days incubation",85%
same,Efficacy,"Pyricularia oryzae; 4 ppm, 5 days incubation",94%
same,Efficacy,"Pyricularia oryzae; 20 ppm, 5 days incubation",100%
same,logP,"[1]; Method B: 40° C., 0.001 molar ammonium acetate solution in water and acetonitrile",5.54
same,Efficacy,Botrytis cinerea; [6],92%
"Cc1nc2ccccc2cc1Oc1ccccc1[Si](C)(C)C [I.047, 2-methyl-3-[2-(trimethylsilyl)phenoxy]quinoline]",inhibition at 20 ppm,Pyricularia oryzae,90 to 100%
same,chromatographic logP,[1]; [7],4.85
"C[SiH](c1ccccc1)c1c(F)cccc1Oc1cc2ccccc2nc1Cl (stereo not drawn) [I.062, 2-chloro-3-{3-fluoro-2-[methyl(phenyl)silyl]phenoxy}quinoline]",inhibition at 20 ppm,Pyricularia oryzae,90 to 100%
same,chromatographic logP,[1]; [7],5.78
C[Si](C)(C)c1c(F)cccc1Oc1cnc2cccnc2c1 [I.116],Efficacy,"Pyricularia oryzae; 1 ppm, 5 days incubation",90%
same,Efficacy,"Pyricularia oryzae; 4 ppm, 5 days incubation",100%
same,Efficacy,"Pyricularia oryzae; 20 ppm, 5 days incubation",100%
same,logP,[1]; [7],4.15
same,Efficacy,Botrytis cinerea; [6],73%
